Data set [1] concerns 54 clinically isolated C. difficile strains. Description: MIC by agar dilution against 54 clinically isolated strains. Particulars: for MIC90 / MIC50: Clostridioides difficile, 54 clinically isolated C. difficile strains; for MIC50: read-out: MIC50. The format is cell-based, Clostridioides difficile. The procedure: (§1) MICs obtained using the agar dilution method were determined visually as described for the CLSI method ([41], [42]). MICs obtained using the broth dilution method were determined visually based on the CLSI method except for using Gifu anaerobic medium (GAM) broth instead of supplemented Brucella broth ([41], [42]).
For orientation: Agar dilution tests growth on a series of plates holding different concentrations.

Data set [2] has as its system hypervirulent and nonhypervirulent strains of C. difficile (62 strains). Description: MIC distribution against 20 hypervirulent and 42 nonhypervirulent strains. Format: cell-based, Clostridioides difficile. Particulars: for MIC90 / MIC50: Clostridioides difficile.
For data set [3], the system named is 10 clinical isolates of C. difficile. Description: MIC (broth dilution) and MBC testing, 10 clinical isolates. The format is cell-based, Clostridioides difficile. Particulars: 10 clinical isolates. The procedure:
In this test, MIC testing was performed using the broth dilution method as recommended in the CLSI ([41]). After the MICs were determined, 10 μl of the bacterial suspension from the MIC test tube was inoculated onto agar plates and incubated at 37°C. The bacterial colonies were then counted and bacterial numbers were calculated. The MBC was considered to be the lowest concentration of the antibiotics that prevented growth and reduced the inoculum by >99.9% within 48 h, irrespective of counts of survivors at higher antibiotic concentrations.

The subject of data set [4] is C. difficile ATCC 700057. Description: MIC by agar dilution (CLSI) against quality control strain. The format is cell-based, Clostridioides difficile. Particulars: Clostridioides difficile, read-out: MIC. The protocol:
as §1

In data set [5] the test system is C. difficile ATCC 700057. Description: MIC by broth dilution (GAM broth). The format is cell-based, Clostridioides difficile. Particulars: Clostridioides difficile, read-out: MIC. The procedure:
as §1
(In general: In broth dilution the organism is exposed to a series of concentrations in liquid medium.)

In data set [6] the test system is C. difficile ATCC 700057. The format is cell-based, Clostridioides difficile.
Data set [7] relates to C. difficile ATCC 700057. Description: Mutant prevention concentration. The format is cell-based, Clostridioides difficile. Particulars: approximately 10^10 CFU, 3 days. The protocol:
The mutant prevention concentration was measured by plating approximately 10^10 CFU of C. difficile ATCC 700057 onto a GAM agar plate containing the test agent. Inoculated plates were incubated for 3 days, and the MIC for each antibiotic that prevented the growth of colonies was determined using the agar dilution method as described by the CLSI ([41]). The MIC values of grown colonies were compared to determine which bacteria were resistant. The MPC was defined as the lowest concentration that prevented the growth of resistant bacteria.

Data set [8] has as its system C. difficile ATCC 700057. Description: Postantibiotic effect (PAE). The format is cell-based, Clostridioides difficile. Particulars: for Postantibiotic effect: 1 h exposure. The procedure:
C. difficile ATCC 700057 was cultured in GAM agar and adjusted in GAM broth to approximately 10^6 CFU/ml. The bacterial suspensions were preincubated at 37°C for 1 h. […] After preincubation, test and reference solutions were added to each bacterial suspension in a test tube, and the suspensions were cultured for 1 h. After exposure to the test compounds, bacterial suspensions were washed with GAM broth and cultured for 6 h. […] The PAE was defined according to Craig and Gudmundsson as PAE = T − C, where T is the time required for the viable counts of the exposed bacteria to increase by 1 log10 above the counts observed immediately after washing, and C is the corresponding time for the antibiotic unexposed controls ([44]).

Data set [9] relates to C. difficile ATCC 43255. Description: In vivo hamster model of C. difficile infection. More on the design: species or system golden Syrian hamsters. The protocol:
C. difficile ATCC 43255 was cultured on GAM agar, and a bacterial suspension was prepared in saline ([26]). […] Hamsters were infected using oral gavage with 0.5 ml of suspension containing approximately 10^6 CFU of C. difficile (day −1). The next day, the animals were administered clindamycin phosphate (0.2 mg/ml in water) by oral gavage at a dose of 5 ml/kg of body weight, for a final dose of 1 mg/kg (day 0). The animals were allocated to the test groups using a stratified randomization method based on the body weight of each infected animal. The test compounds were administered by oral gavage once daily for 5 days (OPS-2071, 0.008 to 1 mg/kg; fidaxomicin, 0.04 mg/kg to 5 mg/kg; vancomycin, 0.04 to 5 mg/kg [5-fold dilution]). Infected control animals were administered 5% (wt/vol) gum arabic solution by oral gavage. […] The cecal contents of dead animals were tested for toxin A and toxin B using C.Diff Quik Chek Complete (Abbott Diagnostics Medical Co., Ltd., Tokyo, Japan) to confirm that the death of the animal was due to CDI.
The statistical significance of OPS-2071, fidaxomicin, and vancomycin treatment was analyzed at all doses against vehicle. Survival curves were estimated for each group using the Kaplan-Meier method. Differences in survival homogeneity in each group were evaluated with a log-rank test with Dunnett-type (two-sided) comparison.

The subject of data set [10] is C. difficile ATCC 43255. Description: MIC against the infection strain. The format is cell-based, Clostridioides difficile.
Data set [11] concerns C. difficile ATCC 700057. Description: Effect of pH on MIC (agar dilution). Format: cell-based, Clostridioides difficile. Particulars: Clostridioides difficile.
For data set [12] the following is noted: plasma concentrations in the low nanogram per milliliter range or lower; cited from earlier work.
Data set [13] addresses DNA gyrase of C. difficile (Clostridioides difficile, UniProt Q18C89+Q18C90). Description: biochemical.
Setting [14] is: nonhypervirulent strains (n = 42).

SMILES strings stand for the structures. ≈ marks a conversion by molar mass, not a printed value. Where two headings read alike, the source gives them in different places.

Chain of DNA gyrase of C. difficile (Q18C90 entry or part of it): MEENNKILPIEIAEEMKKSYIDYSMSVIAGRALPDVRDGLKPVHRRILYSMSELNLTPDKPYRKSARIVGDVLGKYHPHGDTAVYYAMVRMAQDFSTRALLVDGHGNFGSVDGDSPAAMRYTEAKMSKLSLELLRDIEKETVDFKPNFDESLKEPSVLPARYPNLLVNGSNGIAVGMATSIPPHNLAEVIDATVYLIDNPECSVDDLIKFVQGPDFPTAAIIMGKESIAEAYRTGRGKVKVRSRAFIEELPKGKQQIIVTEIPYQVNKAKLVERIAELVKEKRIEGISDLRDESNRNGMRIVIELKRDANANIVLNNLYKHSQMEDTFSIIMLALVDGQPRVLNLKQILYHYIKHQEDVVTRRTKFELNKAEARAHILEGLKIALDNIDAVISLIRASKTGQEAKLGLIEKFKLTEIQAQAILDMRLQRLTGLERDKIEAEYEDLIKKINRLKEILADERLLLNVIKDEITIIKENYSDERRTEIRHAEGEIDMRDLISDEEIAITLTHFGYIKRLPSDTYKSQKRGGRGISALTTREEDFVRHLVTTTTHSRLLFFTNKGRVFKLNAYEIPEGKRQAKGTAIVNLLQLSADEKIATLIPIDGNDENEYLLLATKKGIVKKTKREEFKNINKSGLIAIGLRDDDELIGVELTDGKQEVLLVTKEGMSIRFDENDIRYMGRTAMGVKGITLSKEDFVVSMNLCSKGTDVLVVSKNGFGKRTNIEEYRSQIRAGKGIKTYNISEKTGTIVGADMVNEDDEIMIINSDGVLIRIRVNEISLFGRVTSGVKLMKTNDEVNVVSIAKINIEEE
Chain of DNA gyrase of C. difficile (Q18C89 entry or part of it): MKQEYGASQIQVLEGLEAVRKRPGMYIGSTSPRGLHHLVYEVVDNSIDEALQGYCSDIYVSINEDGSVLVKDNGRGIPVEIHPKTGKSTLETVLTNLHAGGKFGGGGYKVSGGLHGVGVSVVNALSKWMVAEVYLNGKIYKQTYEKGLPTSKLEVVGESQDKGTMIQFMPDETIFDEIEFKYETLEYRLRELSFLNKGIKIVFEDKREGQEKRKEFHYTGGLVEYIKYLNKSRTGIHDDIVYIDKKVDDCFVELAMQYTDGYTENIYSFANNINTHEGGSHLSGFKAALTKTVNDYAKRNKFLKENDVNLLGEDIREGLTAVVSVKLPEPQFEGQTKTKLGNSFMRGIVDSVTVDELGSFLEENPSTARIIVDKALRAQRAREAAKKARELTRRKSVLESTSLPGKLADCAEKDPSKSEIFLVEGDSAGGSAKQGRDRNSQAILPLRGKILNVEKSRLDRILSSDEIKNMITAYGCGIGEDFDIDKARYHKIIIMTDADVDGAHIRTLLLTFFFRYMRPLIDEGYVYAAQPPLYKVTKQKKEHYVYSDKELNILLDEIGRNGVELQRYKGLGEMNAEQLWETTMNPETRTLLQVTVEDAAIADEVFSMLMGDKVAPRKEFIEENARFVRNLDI

With `CCc1c(Cl)c(O)c(Cl)c(O)c1C(=O)O[C@H]1[C@H](O)[C@H](OC)[C@H](OC/C2=C\C=C\C[C@H](O)/C(C)=C/[C@H](CC)[C@@H](O[C@@H]3OC(C)(C)[C@@H](OC(=O)C(C)C)[C@H](O)[C@@H]3O)/C(C)=C/C(C)=C/C[C@@H]([C@@H](C)O)OC2=O)O[C@@H]1C` [Fidaxomicin], the MIC90 worked out at 8 µg/mL (≈ 7.56 µM) in [1]; 0.25 µg/mL (≈ 0.236 µM) in [2] (all 62 strains); 0.25 µg/mL (≈ 0.236 µM) in data set [2] (hypervirulent strains (n = 20)); 0.25 µg/mL (≈ 0.236 µM) in data set [2] (setting [14]); 0.125 µg/mL (≈ 0.118 µM) in [3] (Clostridioides difficile, broth dilution, read-out: MIC90). Also, the MIC50 was 0.063 µg/mL (≈ 0.0595 µM) in [1], 0.25 µg/mL (≈ 0.236 µM) in data set [2] (hypervirulent strains (n = 20)) and 0.06 µg/mL (≈ 0.0567 µM) in data set [2] (setting [14]). Also, the “Cumulative percentage of strains” value in data set [2] (Hyp (n = 20), MIC 0.063 μg/ml) was 0%; in data set [2] (Non-hyp (n = 42), MIC 0.008 μg/ml), 5%; in [2] (Non-hyp (n = 42), MIC 0.063 μg/ml), 52%; in data set [2] (Non-hyp (n = 42), MIC <0.004 μg/ml), 0%. Besides, the MIC range in [2] (hypervirulent strains (n = 20)) was 0.125 to 0.5 µg/mL; in data set [2] (setting [14]), 0.008 to 0.5 µg/mL; in data set [3] (broth dilution) it was 0.06 to 0.25 µg/mL. Moreover, in data set [3] (>99.9% reduction within 48 h), the “MBC Range” value lay in the range of 0.06 to 0.25 µg/mL. The MBC in [3] (Clostridioides difficile, read-out: MBC90) was 0.25 µg/mL (≈ 0.236 µM). Moreover, the MIC in [4] (ATCC700057, agar dilution, determined for the spontaneous resistance assay) stood at 0.06 µg/mL (≈ 0.0567 µM); in [4] (ATCC700057, quality control strain ATCC 700057, CLSI method), 0.063 µg/mL (≈ 0.0595 µM); in data set [5] (ATCC700057, broth dilution, retested for the time-kill assay), 0.03 µg/mL (≈ 0.0284 µM); in data set [5] (ATCC700057, broth method, determined for the PAE assay) it was 0.06 µg/mL (≈ 0.0567 µM); in data set [10] it was 0.06 µg/mL (≈ 0.0567 µM); in data set [11] (ATCC700057, pH 6) it was 0.03 µg/mL (≈ 0.0284 µM). Further, the minimal inhibitory concentration (MIC) in data set [11] (ATCC700057, pH 7) amounted to 0.06 µg/mL (≈ 0.0567 µM); in data set [11] (ATCC700057, pH 8), 0.06 µg/mL (≈ 0.0567 µM). In addition, the “Frequency of spontaneous resistance” value in data set [6] (4× MIC) is listed as 1.47 × 10^–7; in data set [6] (16× MIC) it was <9.17 × 10^–9; in data set [6] (64× MIC) it was <9.17 × 10^–9. In addition, the “mutant prevention concentration (MPC)” value in [7] stood at 8 µg/mL. Further, in data set [8] (4- and 8-fold the MIC), the “PAEs at 4- and 8-fold the MIC” value is reported as 2.86 to 2.77 h. Also, the Postantibiotic effect amounted to 2.86 h in data set [8] (4× MIC) and 2.77 h in data set [8] (8× MIC). Moreover, the “50% effective dose (ED50)” value in [9] (survival on day 20, oral once daily for 5 days, probit method) is 1.63 mg/kg/day. The “dosages with significant efficacy compared with vehicle control” value in [9] (survival, log-rank test) is no less than 1 mg/kg. Also, the “oral absorption” value in data set [12] is reported as “minimally absorbed”.

Take `C[C@H]1COc2c(N3CCN(C)CC3)c(F)cc3c(=O)c(C(=O)O)cn1c23` [Levofloxacin]: the “activity against C. difficile isolates” value in data set [1] (54 clinical isolates) was “inactive”. Further, in data set [1], the MIC90 is greater than 128 µg/mL and the MIC50 is 128 µg/mL (≈ 354 µM). The same molecule gave an IC50 in data set [13] of 31.8 µM.

A word on the MIC90: it is an inhibitory concentration at the 90% level, which refers to growth in some studies and to a panel of isolates in others. In general, MIC50 refers to an inhibitory concentration at the 50% level, which refers to growth in some studies and to a panel of isolates in others. The term MIC denotes the least concentration at which growth counts as inhibited. The term IC50 denotes the midpoint of a concentration-inhibition curve. A high value points to weaker potency in that assay.

The values are drawn from article PMC8097418, “In Vitro and In Vivo Antibacterial Activities of a Novel Quinolone Compound, OPS-2071, against Clostridioides difficile” (Antimicrobial Agents and Chemotherapy, 2021).
